Experimental data published in patent publication US8426453B2 (Astellas Pharma Inc., priority 2006, dated 2013).

Target: T1, xanthine oxidase (derived from butter milk, by Sigma) (Bos taurus, UniProt P80457)
T1 construct: xanthine oxidase (derived from butter milk, by Sigma); purchased Sigma; host or cells: butter milk (natural source)
Assay: Xanthine oxidase inhibiting activity (pterin fluorescence assay)
Assay type: biochemical
Details: xanthine oxidase 0.03 units/ml, pterin 5 μM, room temperature
Procedure: A test compound was dissolved in DMSO (by Nacalai) to have a concentration of 10 mM, and then just before use, its concentration was adjusted to a desired one.
The xanthine oxidase inhibitory activity of the compound of the present invention was evaluated according to a partly modified method of a method described in a reference “Free Radic. Biol. Med. 6, 607-615, 1992”. Concretely, xanthine oxidase (derived from butter milk, by Sigma) was mixed with 50 mM phosphate buffer to be 0.03 units/ml, and applied to a 96-well plate in an amount of 50 μl/well. The test compound diluted to have a final concentration was added to the plate in an amount of 2 μl/well, and processed at room temperature for 20 minutes. Pterin (by Sigma) was added to it to have a final concentration of 5 μM in an amount of 50 μl/well, and reacted at room temperature for 10 minutes. Under a condition of excitation at 345 nm and emission at 390 nm (pterin is oxidized by xanthine oxidase to give isoxanthopterin, and under the condition it emits light), the sample was analyzed using a microplate reader sapphire (by Tacan).
The light emission by isoxanthopterin in the presence or absence of xanthine oxidase was defined as 0% inhibition and 100% inhibition, respectively, and the concentration (IC50) of the test compound for 50% inhibition was computed.

T1 sequence (P80457 whole entry): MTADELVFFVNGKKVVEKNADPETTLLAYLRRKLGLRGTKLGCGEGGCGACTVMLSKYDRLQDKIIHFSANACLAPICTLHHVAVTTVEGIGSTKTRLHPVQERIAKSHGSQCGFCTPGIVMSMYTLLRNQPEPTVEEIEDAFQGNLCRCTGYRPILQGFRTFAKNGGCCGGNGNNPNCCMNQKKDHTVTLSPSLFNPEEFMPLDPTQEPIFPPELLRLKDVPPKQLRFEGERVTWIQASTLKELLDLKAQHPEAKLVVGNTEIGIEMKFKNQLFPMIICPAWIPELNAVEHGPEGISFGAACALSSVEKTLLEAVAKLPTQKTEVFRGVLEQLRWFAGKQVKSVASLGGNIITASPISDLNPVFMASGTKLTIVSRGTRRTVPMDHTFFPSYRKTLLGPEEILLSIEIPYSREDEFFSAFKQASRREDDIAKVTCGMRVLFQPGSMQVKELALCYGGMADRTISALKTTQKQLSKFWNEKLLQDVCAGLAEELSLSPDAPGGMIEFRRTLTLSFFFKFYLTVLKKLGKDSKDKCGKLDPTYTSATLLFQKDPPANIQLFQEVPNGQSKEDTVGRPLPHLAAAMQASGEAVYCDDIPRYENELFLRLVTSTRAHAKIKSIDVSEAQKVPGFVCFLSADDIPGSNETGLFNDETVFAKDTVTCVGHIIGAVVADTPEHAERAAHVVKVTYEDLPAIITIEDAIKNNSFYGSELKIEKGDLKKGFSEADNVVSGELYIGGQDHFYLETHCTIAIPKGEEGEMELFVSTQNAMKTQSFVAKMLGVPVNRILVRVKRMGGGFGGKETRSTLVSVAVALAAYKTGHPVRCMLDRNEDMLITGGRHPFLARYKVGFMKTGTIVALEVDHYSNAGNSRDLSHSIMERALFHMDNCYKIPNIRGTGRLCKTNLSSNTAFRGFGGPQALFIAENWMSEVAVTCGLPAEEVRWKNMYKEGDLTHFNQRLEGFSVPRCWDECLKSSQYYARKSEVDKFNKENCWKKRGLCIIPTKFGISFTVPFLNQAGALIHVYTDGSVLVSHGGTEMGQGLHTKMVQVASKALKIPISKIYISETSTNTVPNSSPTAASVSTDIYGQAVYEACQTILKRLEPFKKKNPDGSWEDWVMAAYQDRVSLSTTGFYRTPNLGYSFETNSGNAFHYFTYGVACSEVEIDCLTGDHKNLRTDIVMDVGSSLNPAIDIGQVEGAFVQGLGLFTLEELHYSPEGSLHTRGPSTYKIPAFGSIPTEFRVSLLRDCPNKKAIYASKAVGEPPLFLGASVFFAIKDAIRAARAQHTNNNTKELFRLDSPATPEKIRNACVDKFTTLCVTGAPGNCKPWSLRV

Compound	IC50 [nM]
N#Cc1cc(-c2ccc(C(=O)O)s2)cc(F)c1OC1CCCC1 [Example 119]	1.5
Cc1nc(-c2ccc(-c3ccc(OC(F)(F)F)cc3)c(C#N)c2)sc1C(=O)O [compound 240]	≤ 20
N#Cc1cc(-n2cc(C(=O)O)cn2)ccc1-c1ccccc1 [compound 251]	≤ 20
Cc1nc(-c2ccc(-c3ccccc3)c(C#N)c2)sc1C(=O)O [compound 237]	≤ 20
CC(C)COc1ccc(-c2cc(C(=O)O)ccn2)cc1C(F)(F)F [Example 30]	6.3
Cc1ccc(-c2ccc(-n3cc(C(=O)O)cn3)cc2C#N)cc1 [compound 252]	≤ 20

The remaining lines, values ahead:

IC50 [nM]	Compound
≤ 20	Cc1cccc(-c2ccc(-c3nc(C)c(C(=O)O)s3)cc2C#N)c1 [compound 243]
≤ 20	N#Cc1cc(-c2ncc(C(=O)O)s2)ccc1-c1ccccc1 [compound 250]
≤ 20	N#Cc1cc(-c2cc(C(=O)O)ccn2)ccc1-c1ccc(Oc2ccccc2)cc1 [compound 166]
≤ 20	N#Cc1cc(-c2cc(C(=O)O)ccn2)ccc1-c1ccsc1 [compound 141]
≤ 20	N#Cc1cc(-c2cc(C(=O)O)ccn2)ccc1-c1ccco1 [compound 145]
≤ 20	N#Cc1cc(-c2cc(C(=O)O)ccn2)ccc1-c1ccc2c(c1)OCO2 [compound 169]
≤ 20	N#Cc1cc(-c2cc(C(=O)O)ccn2)ccc1-n1ncc2ccccc21 [compound 179]
≤ 20	CC(C)(C)c1ccc(-c2ccc(-c3cc(C(=O)O)ccn3)cc2C#N)cc1 [compound 153]
≤ 20	N#Cc1ccc(-c2ccc(-c3cc(C(=O)O)ccn3)cc2C#N)cc1 [compound 143]
≤ 20	COc1ccccc1-c1ccc(-c2cc(C(=O)O)ccn2)cc1C#N [compound 138]
≤ 20	N#Cc1cc(-c2cc(C(=O)O)ccn2)ccc1-c1ccc(F)cc1 [compound 133]
2.5	CC(C)CSc1ccc(-c2cc(C(=O)O)ccn2)cc1C#N [Example 53]

System: SD rats
Assay: Gastric ulcer model (diclofenac-induced ulcer in gastric corpus)
Assay type: in vivo
Details: 10 mg/kg oral, 1 hour before diclofenac 40 mg/kg oral, measured 6 hours after diclofenac
Procedure: A test compound was suspended in a 0.5% methyl cellulose (MC) solution to prepare a chemical liquid having a concentration 5 ml/kg; and this was orally administered to SD rats (n=12 in each group). The test compound was controlled to be 10 mg/kg or 30 mg/kg. A control group was separately prepared, in which 5 ml/kg of the 0.5% MC solution was orally administered to the rats. After 1 hour, 40 mg/kg of NSAID, diclofenac (by Sigma) was orally administered to all rats of all groups, as a suspension in 0.5% MC solution (5 ml/kg). In 6 hours after the diclofenac administration, the length of the ulcer formed in the gastric corpus was measured using a stereomicroscope (by Nikon) and a micrometer (by Olympus), and the data of 12 cases were averaged. The antiulceration potency (%) of the test compound was computed according to the following formula: Antiulceration Potency (%): [1−(mean ulcer length of compound-administered group/mean ulcer length of 0.5% MC-administered group)]×100.

Compound	Antiulceration potency (inhibitory potency), mean ulcer length in gastric corpus vs 0.5% MC group [%]
Cc1nc(-c2ccc(-c3ccccc3)c(C#N)c2)sc1C(=O)O [compound 237]	32

Same assay, conditions: 30 mg/kg oral, 1 hour before diclofenac 40 mg/kg oral, measured 6 hours after diclofenac

Compound	Antiulceration potency (inhibitory potency), mean ulcer length in gastric corpus vs 0.5% MC group
N#Cc1cc(-n2cc(C(=O)O)cn2)ccc1-c1ccccc1 [compound 251]	43%
CC(C)(C)COc1ccc(-n2cc(C(=O)O)cn2)cc1C#N [Compound B, 1-(3-cyano-4-neopentyloxyphenyl)-1H-pyrazole-4-carboxylic acid]	43%
Oc1ncnc2[nH]ncc12 [allopurinol, reference compound]	no inhibitory potency was confirmed
Cc1nc(-c2ccc(OCC(C)C)c(C#N)c2)sc1C(=O)O [Compound A, 2-(3-cyano-4-isobutyloxyphenyl)-4-methyl-1,3-thiazole-5-carboxylic acid]	36%
N#Cc1cc(-c2cc(C(=O)[O-])ccn2)ccc1-c1ccccc1.[Na+] [compound 8]	72%

System: SD rats
Assay: Small intestine ulcer model (indomethacin-induced ulcer)
Assay type: in vivo
Details: 10 mg/kg oral, 1 hour before and 9 hours after indomethacin 10 mg/kg oral, measured after 24 hours
Procedure: A test compound was suspended in a 0.5% methyl cellulose (MC) solution to prepare a chemical liquid having a concentration 5 ml/kg; and this was orally administered to SD rats (n=10 in each group). The test compound was controlled to be 10 mg/kg in every case. A control group was separately prepared, in which 5 ml/kg of the 0.5% MC solution was orally administered to the rats. After 1 hour, 10 mg/kg of NSAID, indomethacin (by Sigma) was orally administered to the rats, as a suspension in 0.5% MC solution (5 ml/kg). In 9 hours after the indomethacin administration, the test compound was again orally administered to every rat in the same amount as previously; and after 24 hours, the area of the ulcer formed in the small intestine was measured using a stereomicroscope (by Nikon) and a micrometer (by Olympus), and the data of 10 cases were averaged. The antiulceration potency (%) of the test compound was computed according to the following formula: Antiulceration Potency (%): [1−(mean ulcer area of compound-administered group/mean ulcer area of 0.5% MC-administered group)]×100.

Compound	Antiulceration potency (inhibitory potency), mean ulcer area in small intestine vs 0.5% MC group
N#Cc1cc(-c2ncc(C(=O)O)s2)ccc1-c1ccccc1 [compound 250]	73%
N#Cc1cc(-n2cc(C(=O)O)cn2)ccc1-c1ccccc1 [compound 251]	41%
Cc1nc(-c2ccc(-c3ccccc3)c(C#N)c2)sc1C(=O)O [compound 237]	59%
Oc1ncnc2[nH]ncc12 [allopurinol, reference compound]	no inhibitory potency was confirmed
N#Cc1cc(-c2cc(C(=O)[O-])ccn2)ccc1-c1ccccc1.[Na+] [compound 8]	29%
